{
  "source": "ChEMBL document CHEMBL1201862",
  "about": "“PubChem BioAssay data set” (2004)",
  "key": {"[1]": {"molecular_target": "Botulinum neurotoxin type F (Clostridium botulinum, UniProt P30996)", "sequence (P30996 1-436 limits assumed)": "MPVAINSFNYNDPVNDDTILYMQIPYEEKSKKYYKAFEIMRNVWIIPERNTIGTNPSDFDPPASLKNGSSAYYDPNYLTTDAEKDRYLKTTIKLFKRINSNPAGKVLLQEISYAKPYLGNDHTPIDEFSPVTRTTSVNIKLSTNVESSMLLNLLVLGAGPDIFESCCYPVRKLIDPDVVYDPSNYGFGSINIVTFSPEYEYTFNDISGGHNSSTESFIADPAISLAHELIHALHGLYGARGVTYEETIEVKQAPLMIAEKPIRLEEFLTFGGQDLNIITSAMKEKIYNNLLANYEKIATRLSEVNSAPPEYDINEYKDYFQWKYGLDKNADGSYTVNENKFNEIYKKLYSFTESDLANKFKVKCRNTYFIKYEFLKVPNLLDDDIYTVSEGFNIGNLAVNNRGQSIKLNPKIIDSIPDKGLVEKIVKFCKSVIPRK", "assay": "High-throughput multiplex microsphere dose response for inhibitors of toxin protease, specifically Botulinum neurotoxin light chain F protease, compounds from Cherry Pick 02.", "format": "functional", "conditions": "read-out: EC50_MICROM"}, "[2]": {"molecular_target": "Arf-GAP with SH3 domain, ANK repeat and PH domain-containing protein 1 (Homo sapiens, UniProt Q9ULH1)", "sequence (Q9ULH1 whole entry, the tested form may be a part)": "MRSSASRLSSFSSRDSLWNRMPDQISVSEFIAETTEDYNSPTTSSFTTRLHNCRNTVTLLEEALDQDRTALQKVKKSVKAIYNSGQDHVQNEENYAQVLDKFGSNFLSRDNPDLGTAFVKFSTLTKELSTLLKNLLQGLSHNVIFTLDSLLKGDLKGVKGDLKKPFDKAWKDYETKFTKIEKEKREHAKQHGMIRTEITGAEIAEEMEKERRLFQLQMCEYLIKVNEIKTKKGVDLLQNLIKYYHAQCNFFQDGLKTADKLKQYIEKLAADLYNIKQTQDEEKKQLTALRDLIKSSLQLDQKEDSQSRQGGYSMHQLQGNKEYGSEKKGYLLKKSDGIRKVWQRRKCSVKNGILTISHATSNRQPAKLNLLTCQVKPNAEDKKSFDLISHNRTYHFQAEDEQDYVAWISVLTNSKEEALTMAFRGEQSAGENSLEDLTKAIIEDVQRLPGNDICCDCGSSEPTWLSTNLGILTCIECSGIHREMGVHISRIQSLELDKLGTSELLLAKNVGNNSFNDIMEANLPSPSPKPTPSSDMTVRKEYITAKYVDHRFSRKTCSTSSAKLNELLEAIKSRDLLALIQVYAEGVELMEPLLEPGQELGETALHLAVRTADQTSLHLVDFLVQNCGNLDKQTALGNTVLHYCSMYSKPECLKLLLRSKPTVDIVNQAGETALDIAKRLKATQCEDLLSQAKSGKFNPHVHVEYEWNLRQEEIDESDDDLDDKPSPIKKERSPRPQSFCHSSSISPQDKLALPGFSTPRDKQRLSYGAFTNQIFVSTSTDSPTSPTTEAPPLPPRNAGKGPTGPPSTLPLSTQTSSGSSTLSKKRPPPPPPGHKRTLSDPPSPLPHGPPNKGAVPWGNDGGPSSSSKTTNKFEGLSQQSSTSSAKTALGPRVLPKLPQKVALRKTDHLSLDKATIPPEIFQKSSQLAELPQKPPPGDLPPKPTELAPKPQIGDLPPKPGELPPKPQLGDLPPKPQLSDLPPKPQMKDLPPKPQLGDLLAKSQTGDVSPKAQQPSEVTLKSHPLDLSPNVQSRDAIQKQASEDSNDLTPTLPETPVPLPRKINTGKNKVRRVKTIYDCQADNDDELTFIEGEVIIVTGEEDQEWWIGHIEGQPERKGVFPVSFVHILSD", "format": "functional"}, "Genome polyprotein": {"molecular_target": "Genome polyprotein (dengue virus type 2, UniProt P29990)", "sequence (P29990 2492-3391 limits assumed)": "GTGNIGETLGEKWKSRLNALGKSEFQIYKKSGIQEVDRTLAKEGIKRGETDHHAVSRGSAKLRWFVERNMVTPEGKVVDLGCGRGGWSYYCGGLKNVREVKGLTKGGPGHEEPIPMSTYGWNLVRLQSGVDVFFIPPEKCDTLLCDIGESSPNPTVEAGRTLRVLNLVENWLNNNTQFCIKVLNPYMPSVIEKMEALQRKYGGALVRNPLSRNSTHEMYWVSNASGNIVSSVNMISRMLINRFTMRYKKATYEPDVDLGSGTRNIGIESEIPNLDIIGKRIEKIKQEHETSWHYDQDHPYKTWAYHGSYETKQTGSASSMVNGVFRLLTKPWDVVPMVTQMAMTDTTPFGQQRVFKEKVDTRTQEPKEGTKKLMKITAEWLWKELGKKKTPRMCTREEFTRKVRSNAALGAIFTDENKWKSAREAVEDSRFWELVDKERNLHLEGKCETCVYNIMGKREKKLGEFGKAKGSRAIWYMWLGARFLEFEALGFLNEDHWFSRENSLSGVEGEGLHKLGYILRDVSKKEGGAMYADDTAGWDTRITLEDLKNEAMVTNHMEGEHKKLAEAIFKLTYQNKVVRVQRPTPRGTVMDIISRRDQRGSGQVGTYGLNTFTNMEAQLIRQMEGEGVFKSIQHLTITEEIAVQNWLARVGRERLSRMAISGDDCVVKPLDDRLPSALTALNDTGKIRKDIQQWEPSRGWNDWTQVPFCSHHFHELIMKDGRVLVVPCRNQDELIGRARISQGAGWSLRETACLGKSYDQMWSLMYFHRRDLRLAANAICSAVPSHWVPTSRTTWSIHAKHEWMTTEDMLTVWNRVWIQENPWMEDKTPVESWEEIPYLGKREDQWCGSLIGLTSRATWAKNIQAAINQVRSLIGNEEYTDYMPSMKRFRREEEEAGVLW", "assay": "flavivirus cap methylation enzyme inhibition – biochemical, confirmation dose response, primary screen (AID 588689)", "format": "functional"}, "[3]": {"molecular_target": "T1, Scavenger receptor class B member 1 (Mus musculus, UniProt Q61009)", "T1 sequence (Q61009 whole entry)": "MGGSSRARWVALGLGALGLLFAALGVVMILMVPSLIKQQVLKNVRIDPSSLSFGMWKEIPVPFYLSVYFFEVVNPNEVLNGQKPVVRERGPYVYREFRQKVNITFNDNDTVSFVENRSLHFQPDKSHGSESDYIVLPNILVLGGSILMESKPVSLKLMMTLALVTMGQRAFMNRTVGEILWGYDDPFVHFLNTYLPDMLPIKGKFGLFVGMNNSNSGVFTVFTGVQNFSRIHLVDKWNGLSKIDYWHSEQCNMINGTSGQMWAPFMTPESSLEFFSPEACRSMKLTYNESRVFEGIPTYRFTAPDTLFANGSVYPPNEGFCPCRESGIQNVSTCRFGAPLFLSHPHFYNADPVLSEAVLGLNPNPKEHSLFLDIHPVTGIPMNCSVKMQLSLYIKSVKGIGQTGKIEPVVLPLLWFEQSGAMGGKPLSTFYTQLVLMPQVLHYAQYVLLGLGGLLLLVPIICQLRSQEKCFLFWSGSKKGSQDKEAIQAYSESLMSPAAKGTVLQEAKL", "assay": "blockers of DiI-HDL lipid transfer via SR-BI – cell-based, ldlA[mSR-BI] CHO, DiI fluorescence, dry powder, set 10, dose response (AID 624029)", "format": "functional"}, "[4]": {"assay": "cell viability loss, ATP luminescence – CellTiter-Glo, 24 h, powder samples, set 7, cytotoxicity control for SR-BI HDL uptake inhibitor project, dose response (AID 624026)", "format": "functional, cell-based"}, "[5]": {"molecular_target": "T1, Scavenger receptor class B member 1", "assay": "mouse SR-BI DiI-HDL transfer blockers – ldlA[mSR-BI] CHO cells, fluorescence plate reader, dry powder, set 9, dose response (AID 623880)", "format": "functional, cell-based"}},
  "note": "Calls of active or inactive are those of the source.",
  "data": [
    {"molecule": "COc1ccccc1Cc1c(-c2ccc(C)cc2)nc2cc(C)c(Br)c(C)n12", "values": [
      {"measurement": "EC50", "setting": "[1]", "value": "> 20 µM (inactive)"}
    ]},
    {"molecule": "Cc1cc(C)c2nc(N3C(=O)C(O)=C(C(=O)c4ccco4)C3c3cccc(O)c3)sc2c1", "note": "(stereo unspecified)", "values": [
      {"measurement": "IC50", "setting": "[2]", "value": "81.8 µM (inactive)"},
      {"measurement": "IC50", "setting": "Genome polyprotein", "value": "32.4 µM (active)"}
    ]},
    {"molecule": "CC(=O)Nc1ccc(Cl)c(C(=O)Nc2ccc(N3CCN(C(=O)OC(C)(C)C)CC3)cc2)c1", "values": [
      {"measurement": "AC50", "setting": "[3]", "value": "0.00402 µM (active)"},
      {"measurement": "AC50", "setting": "[4]", "value": "> 70 µM (inactive)"},
      {"measurement": "AC50", "setting": "[5]", "value": "0.00659 µM (active)"}
    ]}
  ]
}
